The values that follow come from patent US12194014B2, “Platinum-based amphiphile prodrugs” (NANOMED HOLDINGS PTY LTD, priority 2018, dated 2025).

Data set [1] relates to CFPAC-1 pancreatic cell line. As to the kind of experiment: Cell proliferation and cytotoxicity assay (MTS or crystal violet). Format: cell-based, human. The conditions noted are these: CFPAC-1, 72 hours; prodrug tested as nanoparticles. Here is the method:
(§1) Cell proliferation and cytotoxicity assays were performed in different cell lines by MTS (3-(4,5-dimethylthiazol-2-yl)-5-(3-carboxymethoxyphenyl)-2-(4-sulfophenyl)-2H-tetrazolium) assay. Cells were treated with free drug or prodrug nanoparticles, and in different concentrations in medium supplemented with 10% FBS and incubated for 72 hours.
The cytotoxicity of CP-prodrug nanoparticles made from sole CP-amphiphiles was evaluated in comparison to native CP in a CFPAC-1 pancreatic cell line.
(§2) The cell lines were exposed to media with varying concentrations of the treatments (100-0.2 μM) and incubated for 72 hours. Cell viability was determined using the MTS assay or crystal violate assay and was conducted in triplicate to derive the IC50 values.

The subject of data set [2] is MIAPACA-2 (human pancreatic cancer) cell-derived xenograft. As to the kind of experiment: In vivo tumour inhibition, resistant MIAPACA-2 xenograft (tumour volume, body weight, kidney histopathology). The settings on record: for histopathology of the kidney: 0.75 mg/Kg CP or equivalent, H & E sections. The arrangement: species or system NOD-SCID mice. The source says:
Subcutaneous xenografts were established by implanting 2-3×10^6 cells from cultures of CFPAC-1 or MIAPACA-2 human pancreatic cancer cell lines. Six-week-old male Nonbobese diabetic/severe combined immunodeficient (NOD/SCID) or nonobese diabetic/severe combined immunodeficient-gamma (NSG) mice were obtained from Animal Research Centre, Perth, Australia. These mice were acclimatised for one week in the Kearns Facility, Kolling Institute of Medical Research, the University of Sydney, following standard animal regulation and strict health controls allowing transfer between institutions. Animal care and housing was undertaken in accordance with institutional guidelines of Northern Sydney Local Health District (NSLHD) Animal Care & Ethics Committee (ACEC) (Protocol number 1011-015A).
Tumour growth was measured at least twice a week. When tumours were ˜40-100 mm3, the treatments were administered two times weekly by intraperitoneal injection (IP.) for control and gemcitabine alone groups, and intravenously (IV.) injection for nanoparticles groups for 4 weeks. At 30 days each experiment organs and tumours were harvested for analysis.
Tissue samples were fixed in 10% phosphate buffered formalin and embedded in paraffin. Formalin-fixed, paraffin embedded sections were cut 4-μm thick sections and stained with Mayer's hematoxylin and eosin (H & E). For immunohistochemistry, sections were incubated with the specific antibodies then using the Dako Envision+System-HRP labelled polymer detection kit (DaKo) according to manufacturers' protocol and counterstained with Mayer's hematoxylin and Scott's bluing solution. After mounting, sections were observed under a light microscope (ECLIPSE 80i; Nikon,
The evaluation of anticancer drugs in vivo is essential as it provides insight into the expected clinical outcomes of a drug. An in vivo evaluation of the anti-cancer efficacy of the CP-prodrug nanoparticles vs. CP was conducted on a resistant MIAPACA-2 (human pancreatic cancer) cell-derived xenograft in NOD-SCID mice. Five mice per group were used in the study and all treatments were administered via an IV injection twice a week for four weeks. The amount of CP administered in the free CP group was 0.75 mg/kg, where the nanoparticles made from CP-bis (suc-PEG3-Oleoyl) and stabilised with 30% PEG4K-oleoyl (FIG. 7b), contained 0.75 mg/kg of equivalent CP.

A further data set relates to MCF7 cell line. Kind of data set: Cell proliferation and cytotoxicity assay (MTS or crystal violet). The settings on record: MCF7, 72 hours; prodrug tested as nanoparticles. The data set is classed as cell-based. Here is the method: as §1, §2
The test system of data set [3] is CFPAC-1 (human pancreatic cancer) cell line-derived xenograft. Kind of data set: In vivo tumour inhibition by dual prodrug nanoparticles, CFPAC-1 xenograft. The arrangement: species or system NOD-SCID gamma mouse (NSG). The conditions noted are these: twice a week for 4 weeks; NPs IV with 4.5 mg/Kg Gem (dual: + 1 mg/Kg CP) equivalent; Gemcitabine 100 mg/Kg IP.
Experimental: In another study a dual drug chemotherapeutic prodrug nanoparticle was employed to treat a CFPAC-1 (human pancreatic cancer) cell line-derived xenograft in NOD-SCID gamma mouse (NSG) over 28 days. […] The control groups were injected with the commercially available free Gemcitabine at 100 mg/Kg and PBS (vehicle control). Gemcitabine group were administered by intraperitoneal (IP) injection due to high toxicity of IV injection. 24 mice were used in this study, treating 6 mice/group.
Another data set deals with CACO2 cell line. As to the kind of experiment: Cell proliferation and cytotoxicity assay (MTS or crystal violet). The data set is classed as cell-based. The settings on record: CACO2, 72 hours; prodrug tested as nanoparticles. Here is the method:
as §1, §2

Data set [4] can be described thus: Mesophase behaviour by polarized optical microscopy (POM). Format: physicochemical. The conditions noted are these: 25° C. and 37° C. Here is the method:
Polarized Optical Microscopy (POM): Samples used for Polarized Optical Microscopy (POM) were prepared by placing a small amount of prodrug amphiphile on a microscope slide and covered with a cover slip. Water was placed on the edges of the cover slip and allowed to flow into the sample by capillary action. The microscope slide was placed in a Linkam PE94 hot stage (Linkam Scientific Instruments Ltd. Surrey, England) and heated at 3° C./min between room temperature and 50° C. […] Images were captured with a Nikon DS-Ri-1 camera. All images were taken at 100× magnification.
The formation of lyotropic mesophases is based on the interaction of the prodrug amphiphile with water. Polarized optical microscopy was used to study the liquid crystalline or crystalline structures of the prodrug amphiphiles. This method was used as a preliminary and qualitative investigation to observe the morphological changes of the amphiphile as well as to predict the structural changes of the mesophases which may form upon hydration with water. For each prodrug amphiphile, a small amount of the neat and dry sample was placed on a microscope slide and covered with a cover slip. Water was placed on the edges of the cover slip to allow to flow into the sample by capillary action. Images were captured at 25° C. before and after the addition of water and at 37° C. after exposure to water. 37° C. was selected due to its physiological relevance. […]

Data set [5] in a line: Reduction kinetics of Pt (IV) prodrug nanoparticles with ascorbic acid (LC-MS). Format: in vitro ADME. The conditions noted are these: prodrug nanoparticles 0.1 mM, 37° C. Here is the method: The reducing agent was applied at concentrations corresponding to those found in the living cells' environment, e.g. 1 mM ascorbic acid or 2 mM glutathione (GSH).
Dispersed nanoparticles of Pt (IV) prodrug amphiphiles were mixed with GSH, ascorbic acid or their combination. The ratios of the reducing agents to platinum prodrugs were 10:1 or 50:1 for ascorbic acid and 20:1 for GSH. The reduction kinetics was analysed by LC-MS via monitoring the peaks related to each prodrug amphiphile. The prodrugs were detected by negative ions optimised for each platinum amphiphile. The reduction kinetics was plotted as the percentage of the area under the peak of Pt (IV)-prodrug compared to the peak before the addition of the reducing agent against the time of incubation. At each time point 10 μl of a sample withdrawn from the reaction solution was injected directly into a Phenomenex C8 150 mm×2 mm 5 μm Luna column (Phenomenex, Australia). A 100% Methanol solution was used as the mobile phase with a flow rate of 0.5 ml/min for 8 minutes. The sample after the column separation was eluted to the ESI source. […] The samples were well maintained at a temperature of 37° C. during the entire measurement by incubation in the temperature-controlled auto-sampler. Data was acquired and processed with Xcalibur Quan chromatography software.

The mark [6] stands for this setting: 0.75 mg/kg CP or equivalent, IV twice a week for four weeks.

For orientation: IC50 means the concentration that gives 50% inhibition.

Entries after “also recorded” stand apart in the source; their conditions may differ.

As for `N.N.[Cl][Pt][Cl]` [Cisplatin, Cis-diamminedichloroplatinum (II)], the IC50 is 3.6 µM in data set [1] and 11.5 µM in the data set on MCF7 cell line. For the same compound, the “histopathology of the kidney” value in data set [2] (listed as CP) is “sever pathological changes in the form of acute tubular necrosis, haemorrhage into many of the glomeruli and swelling of the capillaries”; in data set [2] (listed as CP drug) it was “acute tubular necrosis”. Further, in data set [2] (setting [6]), the “average increase of body weight at the conclusion of the experiment” value was 14%. For the same compound, the “tumour growth inhibition (in words)” value in data set [2] (setting [6]) was “growth inhibition to control PBS group, but less than group treated with nanoparticle”.

In the case of `Nc1ccn([C@@H]2O[C@H](CO)[C@@H](O)C2(F)F)c(=O)n1` [Gemcitabine], the “tumour growth inhibition (in words)” value in data set [3] is reported as “significantly reduced the tumour volume; also recorded: reduced the size of tumour significantly better than other groups”.

As to “cis,cis,trans-(PtC12 (succinoyl-triethyleneglycoyl-oleoyl)2) [CP-bis(suc-PEG3-oleoyl)]”, the IC50 in data set [1] was 5.1 µM; with CACO2 cell line it was 49 µM; in the data set on MCF7 cell line, 28.2 µM. In addition, the “POM observation on exposure to water” value in data set [4] is “lamellar and emulsified bands (L2 or L3) mesophases”. Further, the “reduction rate at 5 mM versus 1 mM ascorbic acid” value in data set [5] was “slightly greater than 1 mM up to 4 h, however longer incubation time up to 7 h showed similar reduced prodrug at both concentrations”.
